The supplement of paper PMC10331698
± gives the standard deviation of the averaged measurements.

Experiments:
Experiment in all cases: level (log10 ratio to DMSO vehicle control); higher = higher biomarker level / cell amount than vehicle control
[1] = compound: O=S(=O)(O)CCC(F)(F)C(F)(F)C(F)(F)C(F)(F)C(F)(F)C(F)(F)F [6:2 Fluorotelomer sulfonic acid]; conditions: in DMSO
Protocol: (§1)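 BioMAP Diversity Plus panel of 12 human primary cell co-culture systems (3C, 4H, LPS, SAg, BT, BF4T, BE3C, CASM3C, HDF3CGF, KF3CT, MyoF, Mphg). Compounds were added 1 h before stimulation and left for 24 h (MyoF 48 h; BT 72 h for soluble read-outs or 6 d for IgG). Biomarkers were read by ELISA, cytotoxicity by SRB, PBMC viability and proliferation by Alamar Blue. Each well value was divided by the mean of 8 DMSO control wells on the same plate and log10 transformed; duplicate blinded samples were tested at 4 concentrations.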

[2] = compound: O=S(=O)(Cl)C(F)(F)C(F)(F)C(F)(F)C(F)(F)C(F)(F)C(F)(F)C(F)(F)C(F)(F)F [Perfluoro-1-octanesulfonyl chloride]; conditions: in DMSO
Protocol: as §1

Heptafluorobutyl iodide = compound: FC(F)(F)C(F)(F)C(F)(F)CI [Heptafluorobutyl iodide]; conditions: in DMSO
Protocol: as §1

[3] = compound: O=S(=O)(F)C(F)(F)C(F)(F)C(F)(F)C(F)(F)C(F)(F)C(F)(F)C(F)(F)C(F)(F)F [Perfluorooctanesulfonyl fluoride]; conditions: in DMSO
Protocol: as §1

[4] = compound: FC(F)(F)C(F)(F)C(F)(F)CC1CO1 [1H,1H-Heptafluorobutyl epoxide]; conditions: in DMSO
Protocol: as §1

Hexafluoroamylene glycol = compound: OCC(F)(F)C(F)(F)C(F)(F)CO [Hexafluoroamylene glycol]; conditions: in DMSO
Protocol: as §1

[5] = compound: O=S(=O)(O)C(F)(F)C(F)(F)C(F)(F)C(F)(F)C(F)(F)C(F)(F)C(F)(F)C(F)(F)C(F)(F)C(F)(F)F [Sodium perfluorodecanesulfonate]; conditions: in DMSO
Protocol: as §1

[6] = compound: FC(F)(F)C(F)(F)C(F)(F)C(F)(F)C(F)(F)C(F)(F)C(F)(F)I [1-Iodopentadecafluoroheptane]; conditions: in DMSO
Protocol: as §1

[7] = compound: FC(F)(F)C(F)(F)C(F)(F)C(F)(F)C(F)(F)C(F)(F)CC1CO1 [3-(Perfluorohexyl)-1,2-epoxypropane]; conditions: in DMSO
Protocol: as §1

Octafluoroadipamide = compound: NC(=O)C(F)(F)C(F)(F)C(F)(F)C(F)(F)C(N)=O [Octafluoroadipamide]; conditions: in DMSO
Protocol: as §1

[8] = compound: C=CC(=O)OCC(F)(F)C(F)(F)C(F)(F)COC(=O)C=C [1H,1H,5H,5H-Perfluoro-1,5-pentanediol diacrylate]; conditions: 6700 nM; in DMSO
Protocol: as §1

[9] = compound: FC(F)(F)C(F)(F)CNCC(F)(F)C(F)(F)F [Bis(1H,1H-perfluoropropyl)amine]; conditions: in DMSO
Protocol: as §1

[10] = compound: NC(=O)C(F)(F)C(F)(F)C(F)(F)C(F)F; conditions: in DMSO
Protocol: as §1

[11] = compound: O=C(O)C=CC(F)(C(F)(F)F)C(F)(F)F [3-(Perfluoroisopropyl)-2-propenoic acid]; conditions: in DMSO
Protocol: as §1

Nonafluoropentanamide = compound: NC(=O)C(F)(F)C(F)(F)C(F)(F)C(F)(F)F [Nonafluoropentanamide]; conditions: in DMSO
Protocol: as §1

[12] = compound: O=C(O)C(F)(F)C(F)(F)C(F)(F)C(F)(F)C(F)(F)C(F)(F)C(F)(F)C(F)(F)C(F)(F)C(F)F [11-H-Perfluoroundecanoic acid]; conditions: in DMSO
Protocol: as §1

[13] = compound: NS(=O)(=O)C(F)(F)C(F)(F)C(F)(F)C(F)(F)C(F)(F)C(F)(F)F [Perfluorohexanesulfonamide]; conditions: in DMSO
Protocol: as §1

[14] = compound: COC(=O)C(F)(F)C(F)(F)OC(F)(C(F)(F)F)C(F)(F)OC(F)=C(F)F [Methyl perfluoro(3-(1-ethenyloxypropan-2-yloxy)propanoate)]; conditions: in DMSO
Protocol: as §1

[15] = compound: C=C(C)C(=O)OCCC(F)(F)C(F)(F)C(F)(F)C(F)(F)C(F)(F)C(F)(F)F [6:2 Fluorotelomer methacrylate]; conditions: in DMSO
Protocol: as §1

## MyoF:Collagen III
[1]; 6700 nM
  level (log10): -0.011 ± 0.013
[1]; 20000 nM
  level (log10): -0.02 ± 0.017
[1]; 60000 nM
  level (log10): -0.0055 ± 0.015
[2]; 6700 nM
  level (log10): -0.0155 ± 0.0035
[2]; 20000 nM
  level (log10): -0.0315 ± 0.00071
[2]; 60000 nM
  level (log10): -0.164 ± 0.035
Heptafluorobutyl iodide; 6700 nM
  level (log10): -0.0095 ± 0.019
Heptafluorobutyl iodide; 20000 nM
  level (log10): -0.033 ± 0.013
Heptafluorobutyl iodide; 60000 nM
  level (log10): -0.0205 ± 0.033
[3]; 6700 nM
  level (log10): 0.0095 ± 0.018
[3]; 20000 nM
  level (log10): -0.0005 ± 0.03
[3]; 60000 nM
  level (log10): 0.009 ± 0.0099
[4]; 6700 nM
  level (log10): -0.007 ± 0.011
[4]; 20000 nM
  level (log10): -0.012 ± 0.011
[4]; 60000 nM
  level (log10): -0.012 ± 0.0042
Hexafluoroamylene glycol; 6700 nM
  level (log10): -0.007 ± 0.017
Hexafluoroamylene glycol; 20000 nM
  level (log10): -0.005 ± 0.018
Hexafluoroamylene glycol; 60000 nM
  level (log10): 0.005 ± 0.017
[5]; 1500 nM
  level (log10): 0.0125 ± 0.037
[5]; 4400 nM
  level (log10): 0.02 ± 0.0057
[5]; 13000 nM
  level (log10): -0.0005 ± 0.0035
[5]; 40000 nM
  level (log10): -0.0455 ± 0.0021
[6]; 6700 nM
  level (log10): -0.0365 ± 0.005
[6]; 20000 nM
  level (log10): -0.311 ± 0.093
[7]; 6700 nM
  level (log10): 0.007 ± 0.0028
[7]; 20000 nM
  level (log10): 0.003 ± 0.011
[7]; 60000 nM
  level (log10): 0.0065 ± 0.011
Octafluoroadipamide; 6700 nM
  level (log10): 0.0035 ± 0.011
Octafluoroadipamide; 20000 nM
  level (log10): 0.009 ± 0.0057
Octafluoroadipamide; 60000 nM
  level (log10): -0.0075 ± 0.025
[8]
  level (log10): -0.027 ± 0.013
[9]; 6700 nM
  level (log10): 0.003 ± 0.016
[9]; 20000 nM
  level (log10): 0.0025 ± 0.005
[9]; 60000 nM
  level (log10): -0.0035 ± 0.0092
[10]; 6700 nM
  level (log10): 0.003
[10]; 20000 nM
  level (log10): 0.0135 ± 0.00071
[10]; 60000 nM
  level (log10): -0.0065 ± 0.035
[11]; 6700 nM
  level (log10): -0.0055 ± 0.022
[11]; 20000 nM
  level (log10): 0.003 ± 0.0071
[11]; 60000 nM
  level (log10): 0.0075 ± 0.005
Nonafluoropentanamide; 6700 nM
  level (log10): -0.029 ± 0.021
Nonafluoropentanamide; 20000 nM
  level (log10): -0.0335 ± 0.036
Nonafluoropentanamide; 60000 nM
  level (log10): -0.0145 ± 0.0092
[12]; 6700 nM
  level (log10): -0.0405 ± 0.005
[12]; 20000 nM
  level (log10): -0.475 ± 0.079
[13]; 6700 nM
  level (log10): 0.009 ± 0.0071
[13]; 20000 nM
  level (log10): 0.008 ± 0.0014
[13]; 60000 nM
  level (log10): 0.0025 ± 0.0035
[14]; 6700 nM
  level (log10): -0.0145 ± 0.013
[14]; 20000 nM
  level (log10): -0.005 ± 0.0071
[15]; 6700 nM
  level (log10): 0.008 ± 0.027
[15]; 20000 nM
  level (log10): 0.012 ± 0.0057
[15]; 60000 nM
  level (log10): 0.006 ± 0.017

## KF3CT:SRB
[1]; 6700 nM
  level (log10): -0.004
[1]; 20000 nM
  level (log10): 0.0005 ± 0.0035
[1]; 60000 nM
  level (log10): 0.006 ± 0.016
[2]; 6700 nM
  level (log10): -0.0095 ± 0.011
[2]; 20000 nM
  level (log10): -0.0315 ± 0.0078
[2]; 60000 nM
  level (log10): -0.026 ± 0.0028
Heptafluorobutyl iodide; 6700 nM
  level (log10): -0.002 ± 0.0028
Heptafluorobutyl iodide; 20000 nM
  level (log10): 0 ± 0.0042
Heptafluorobutyl iodide; 60000 nM
  level (log10): 0.001 ± 0.016
[3]; 6700 nM
  level (log10): 0.0025 ± 0.0021
[3]; 20000 nM
  level (log10): 0.0015 ± 0.005
[3]; 60000 nM
  level (log10): 0.0045 ± 0.00071
[4]; 6700 nM
  level (log10): -0.001 ± 0.0085
[4]; 20000 nM
  level (log10): 0.001 ± 0.0028
[4]; 60000 nM
  level (log10): -0.001 ± 0.0057
Hexafluoroamylene glycol; 6700 nM
  level (log10): -0.0045 ± 0.00071
Hexafluoroamylene glycol; 20000 nM
  level (log10): -0.005 ± 0.0057
Hexafluoroamylene glycol; 60000 nM
  level (log10): 0.0025 ± 0.0078
[5]; 1500 nM
  level (log10): 0.006 ± 0.011
[5]; 4400 nM
  level (log10): 0 ± 0.0042
[5]; 13000 nM
  level (log10): -0.003 ± 0.0028
[5]; 40000 nM
  level (log10): 0.0095 ± 0.016
[6]; 6700 nM
  level (log10): 0.0015 ± 0.0064
[6]; 20000 nM
  level (log10): 0.005 ± 0.0057
[7]; 6700 nM
  level (log10): -0.0075 ± 0.0021
[7]; 20000 nM
  level (log10): -0.008
[7]; 60000 nM
  level (log10): 0 ± 0.013
Octafluoroadipamide; 6700 nM
  level (log10): 0.0015 ± 0.00071
Octafluoroadipamide; 20000 nM
  level (log10): -0.004 ± 0.011
Octafluoroadipamide; 60000 nM
  level (log10): 0.0125 ± 0.005
[8]
  level (log10): -0.01 ± 0.0085
[9]; 6700 nM
  level (log10): -0.007 ± 0.0057
[9]; 20000 nM
  level (log10): -0.007 ± 0.0014
[9]; 60000 nM
  level (log10): 0.0095 ± 0.011
[10]; 6700 nM
  level (log10): -0.006 ± 0.0028
[10]; 20000 nM
  level (log10): -0.0005 ± 0.0064
[10]; 60000 nM
  level (log10): -0.002 ± 0.013
[11]; 6700 nM
  level (log10): -0.005
[11]; 20000 nM
  level (log10): -0.009 ± 0.0014
[11]; 60000 nM
  level (log10): 0.002 ± 0.013
Nonafluoropentanamide; 6700 nM
  level (log10): -0.001
Nonafluoropentanamide; 20000 nM
  level (log10): -0.004 ± 0.0071
Nonafluoropentanamide; 60000 nM
  level (log10): 0.0085 ± 0.015
[12]; 6700 nM
  level (log10): -0.01 ± 0.017
[12]; 20000 nM
  level (log10): -0.012 ± 0.0014
[13]; 6700 nM
  level (log10): 0 ± 0.0099
[13]; 20000 nM
  level (log10): -0.008 ± 0.0028
[13]; 60000 nM
  level (log10): -0.014 ± 0.0042
[14]; 6700 nM
  level (log10): 0.005 ± 0.013
[14]; 20000 nM
  level (log10): 0.0125 ± 0.0078
[15]; 6700 nM
  level (log10): -0.005 ± 0.0085
[15]; 20000 nM
  level (log10): 0
[15]; 60000 nM
  level (log10): -0.001 ± 0.0057
